Laboratory results taken from patent US5061689A, “Zinc bacitracin containing wound dressing” (Bioderm, Inc., priority 1986, dated 1991).

System: partial thickness wounds
Assay: Topically applied bacitracin zinc 3% to 9%, healing of partial thickness wounds (Example III)
Format: in vivo, white Yorkshire pigs
From the text: To test the effect of bacitracin zinc on epidermal resurfacing, approximately 60 rectangular wounds measuring 7 mm wide, 10 mm long, and 0.5 mm deep were made in each of eighteen white Yorkshire pigs in the paravertebral and thoracic areas with a Castroviejo keratome. The electrokeratome was fitted with a razor blade modified so that the cutting edge was reduced to 7 mm. The wounds were separated from one another by at least 15 mm of normal skin. The bacitracin zinc was applied in impregnated foam shortly (within 5 minutes) after wounding on day 0 and once daily thereafter for 7 days. In order to rule out the possibility that wounds made in different anatomical regions heal at different rates the regions used for each treatment group varied for each animal. Two days after wounding and each day thereafter some of the wounds with surrounding normal skin were excised from each treatment group. The excisions were made with a Castroviejo keratome fitted with a 22 mm blade, set to cut at a depth of 0.7 mm. After incubating the specimens in 2N sodium bromide at 37° C. for three hours, the epidermis was separated from the dermis and the epidermal sheet (22 sq mm) was assessed for re-epithelialization as previously described. Briefly, this method is a macroscopic examination of the separated epidermis for defects. Defects are visualized as holes in the separated epidermal sheet or as a lack of epidermal continuum in the area that contain the wound. The wound is considered re-epithelialized if there are no defects in the epidermis and not re-epithelialized if there are one or more defects. To more accurately assess the effective range of bacitracin concentrations,bacitracin zinc containing ointments were prepared with concentrations ranging from 3% to 9%. The methodology employed was substantially the same as in Example I.

Substance: bacitracin zinc
- % of wounds healed (3.0% bacitracin zinc, day 2 after wounding): 0%
- % of wounds healed (3.0% bacitracin zinc, day 3 after wounding): 0%
- % of wounds healed (3.0% bacitracin zinc, day 4 after wounding): 33%
- % of wounds healed (3.0% bacitracin zinc, day 5 after wounding): 55%
- % of wounds healed (3.0% bacitracin zinc, day 6 after wounding): 90%
- % of wounds healed (3.0% bacitracin zinc, day 7 after wounding): 100%
- % of wounds healed (4.0% bacitracin zinc, day 2 after wounding): 0%
- % of wounds healed (4.0% bacitracin zinc, day 3 after wounding): 5%
- % of wounds healed (4.0% bacitracin zinc, day 4 after wounding): 45%
- % of wounds healed (4.0% bacitracin zinc, day 5 after wounding): 60%
- % of wounds healed (4.0% bacitracin zinc, day 6 after wounding): 96%
- % of wounds healed (4.0% bacitracin zinc, day 7 after wounding): 100%
- % of wounds healed (5.0% bacitracin zinc, day 2 after wounding): 0%
- % of wounds healed (5.0% bacitracin zinc, day 3 after wounding): 9%
- % of wounds healed (5.0% bacitracin zinc, day 4 after wounding): 48%
- % of wounds healed (5.0% bacitracin zinc, day 5 after wounding): 71%
- % of wounds healed (5.0% bacitracin zinc, day 6 after wounding): 95%
- % of wounds healed (5.0% bacitracin zinc, day 7 after wounding): 100%
- % of wounds healed (5.5% bacitracin zinc, day 2 after wounding): 0%
- % of wounds healed (5.5% bacitracin zinc, day 3 after wounding): 15%
- % of wounds healed (5.5% bacitracin zinc, day 4 after wounding): 55%
- % of wounds healed (5.5% bacitracin zinc, day 5 after wounding): 75%
- % of wounds healed (5.5% bacitracin zinc, day 6 after wounding): 98%
- % of wounds healed (5.5% bacitracin zinc, day 7 after wounding): 100%
- % of wounds healed (6.0% bacitracin zinc, day 2 after wounding): 0%
- % of wounds healed (6.0% bacitracin zinc, day 3 after wounding): 20%
- % of wounds healed (6.0% bacitracin zinc, day 4 after wounding): 59%
- % of wounds healed (6.0% bacitracin zinc, day 5 after wounding): 78%
- % of wounds healed (6.0% bacitracin zinc, day 6 after wounding): 98%
- % of wounds healed (6.0% bacitracin zinc, day 7 after wounding): 100%
- % of wounds healed (6.5% bacitracin zinc, day 2 after wounding): 0%
- % of wounds healed (6.5% bacitracin zinc, day 3 after wounding): 33%
- % of wounds healed (6.5% bacitracin zinc, day 4 after wounding): 65%
- % of wounds healed (6.5% bacitracin zinc, day 5 after wounding): 88%
- % of wounds healed (6.5% bacitracin zinc, day 6 after wounding): 100%
- % of wounds healed (6.5% bacitracin zinc, day 7 after wounding): 100%
- % of wounds healed (7.0% bacitracin zinc, day 2 after wounding): 0%
- % of wounds healed (7.0% bacitracin zinc, day 3 after wounding): 40%
- % of wounds healed (7.0% bacitracin zinc, day 4 after wounding): 70%
- % of wounds healed (7.0% bacitracin zinc, day 5 after wounding): 96%
- % of wounds healed (7.0% bacitracin zinc, day 6 after wounding): 100%
- % of wounds healed (7.0% bacitracin zinc, day 7 after wounding): 100%
- % of wounds healed (7.5% bacitracin zinc, day 2 after wounding): 0%
- % of wounds healed (7.5% bacitracin zinc, day 3 after wounding): 38%
- % of wounds healed (7.5% bacitracin zinc, day 4 after wounding): 68%
- % of wounds healed (7.5% bacitracin zinc, day 5 after wounding): 92%
- % of wounds healed (7.5% bacitracin zinc, day 6 after wounding): 98%
- % of wounds healed (7.5% bacitracin zinc, day 7 after wounding): 100%
- % of wounds healed (8.0% bacitracin zinc, day 2 after wounding): 0%
- % of wounds healed (8.0% bacitracin zinc, day 3 after wounding): 12%
- % of wounds healed (8.0% bacitracin zinc, day 4 after wounding): 59%
- % of wounds healed (8.0% bacitracin zinc, day 5 after wounding): 75%
- % of wounds healed (8.0% bacitracin zinc, day 6 after wounding): 90%
- % of wounds healed (8.0% bacitracin zinc, day 7 after wounding): 100%
- % of wounds healed (9.0% bacitracin zinc, day 2 after wounding): 0%
- % of wounds healed (9.0% bacitracin zinc, day 3 after wounding): 4%
- % of wounds healed (9.0% bacitracin zinc, day 4 after wounding): 33%
- % of wounds healed (9.0% bacitracin zinc, day 5 after wounding): 66%
- % of wounds healed (9.0% bacitracin zinc, day 6 after wounding): 90%
- % of wounds healed (9.0% bacitracin zinc, day 7 after wounding): 100%
- promoting epidermal resurfacing (applied in an ointment base at concentrations of about 5% to 8%): effective agent for promoting epidermal resurfacing
- enhancement of healing (concentration of 4%): some enhancement of healing is observed
- enhancement of healing (higher concentrations, particularly in the range of 6.5%-7.5%): Preferred healing is observed
